From patent EP0908457B1, “3-(1,2-benzisothiazol- and isoxazol-5-Y1)-2,4(1H,3H)-pyrimidinedione or thione and 3-(1,2-benzisothiazol- and isoxazol-5-y1)-4(3H)-pyrimidinone or thione herbicidal agents” (BASF AKTIENGESELLSCHAFT, priority 1997, dated 1999) come the findings set out here.

Holding throughout (format): in vivo
Experiment [1] concerns Cyperus serotinus, Rottb. Briefly: Preemergence weed control under flooded paddy conditions, CYPSE (Flatsedge). As to herbicidal effect rating, CYPSE: meaning of each grade not given here. The conditions noted are these: for herbicidal effect rating, CYPSE / CYPSE herbicidal rating: preemergence, rated three to four weeks after treatment; for CYPSE: preemergence weeds, herbicidal effect rating 0-9, three to four weeks after treatment.
Experiment [2] relates to Monochoria vaginalis, Presl. Briefly: Preemergence weed control under flooded paddy conditions, MOOVA (Monochoria). As to herbicidal effect rating, MOOVA: meaning of each grade not given here. The note with it: flooded paddy; for herbicidal effect rating, MOOVA / MOOVA herbicidal rating: preemergence, rated three to four weeks after treatment; for MOOVA: preemergence weeds, herbicidal effect rating 0-9, three to four weeks after treatment.
Experiment [3] deals with Sagittaria pygmaea, L. Briefly: Preemergence weed control under flooded paddy conditions, SAGPY (Arrowhead (Pygmaea)). As to herbicidal effect rating, SAGPY: meaning of each grade not given here. The note with it: flooded paddy; for herbicidal effect rating, SAGPY / SAGPY herbicidal rating: preemergence, rated three to four weeks after treatment; for SAGPY: preemergence weeds, herbicidal effect rating 0-9, three to four weeks after treatment.
Experiment [4] concerns Cyperus iria. Briefly: Preemergence weed control under flooded paddy conditions, CYPIR (Rice Flatsedge). As to herbicidal effect rating, CYPIR: meaning of each grade not given here. The conditions noted are these: flooded paddy; for herbicidal effect rating, CYPIR / CYPIR herbicidal rating: preemergence, rated three to four weeks after treatment; for CYPIR: preemergence weeds, herbicidal effect rating 0-9, three to four weeks after treatment.
Experiment [5] relates to Echinochloa oryzoides (Ard.) Fritsch. Briefly: Preemergence weed control under flooded paddy conditions, ECHORC (Watergrass (Calif.)). As to herbicidal effect rating, ECHORC: meaning of each grade not given here. The note with it: flooded paddy; for herbicidal effect rating, ECHORC / ECHORC herbicidal rating: preemergence, rated three to four weeks after treatment; for ECHORC: preemergence weeds, herbicidal effect rating 0-9, three to four weeks after treatment.

For `Cn1c(C(F)(F)F)cc(=O)n(-c2ccc3snc(COS(C)(=O)=O)c3c2)c1=O` [Example 363, 2,4(1H,3H)-Pyrimidinedione, 3-[3-(hydroxymethyl)-1,2-benzisothiazol-5-yl]-1-methyl-6-(trifluoromethyl)-, methanesulfonate (ester)], the “herbicidal effect rating, CYPSE” value in experiment [1] (Rate 0.0320 kg/ha) is reported as 0.0; in experiment [1] (Rate 0.0620 kg/ha) it was 0.0; in experiment [1] (Rate 0.1250 kg/ha), 5.0; in experiment [1] (Rate 0.2500 kg/ha), 7.0; in experiment [1] (Rate 0.5000 kg/ha) it was 7.0. In addition, the “herbicidal effect rating, MOOVA” value in experiment [2] (Rate 0.0320 kg/ha), in experiment [2] (Rate 0.0620 kg/ha), in experiment [2] (Rate 0.1250 kg/ha), in experiment [2] (Rate 0.2500 kg/ha) and in experiment [2] (Rate 0.5000 kg/ha) was 9.0 each time. The “herbicidal effect rating, SAGPY” value in experiment [3] (Rate 0.0320 kg/ha) is reported as 3.0; in experiment [3] (Rate 0.0620 kg/ha), 5.0; in experiment [3] (Rate 0.1250 kg/ha), 7.0; in experiment [3] (Rate 0.2500 kg/ha), 9.0; in experiment [3] (Rate 0.5000 kg/ha) it was 9.0. For the same compound, the “herbicidal effect rating, CYPIR” value in experiment [4] (Rate 0.0320 kg/ha) is 6.0; in experiment [4] (Rate 0.0620 kg/ha), 7.0; in experiment [4] (Rate 0.1250 kg/ha) it was 7.0; in experiment [4] (Rate 0.2500 kg/ha), 7.0; in experiment [4] (Rate 0.5000 kg/ha), 8.0. For the same compound, the “herbicidal effect rating, ECHORC” value in experiment [5] (Rate 0.0320 kg/ha) is given as 3.0; in experiment [5] (Rate 0.0620 kg/ha), 4.0; in experiment [5] (Rate 0.1250 kg/ha) it was 5.0; in experiment [5] (Rate 0.2500 kg/ha), 6.0; in experiment [5] (Rate 0.5000 kg/ha), 7.0.

With `Cn1c(C(F)(F)F)cc(=O)n(-c2ccc3snc(COC(=O)C4CC4)c3c2)c1=O` [Example 496, 2,4(1H,3H)-Pyrimidinedione, 3-[3-(hydroxymethyl)-1,2-benzisothiazol-5-yl]-1-methyl-6-(trifluoromethyl)-, cyclopropanecarboxylate (ester)], the CYPSE herbicidal rating in experiment [1] (0.2500 kg/ha) stood at 7.0. The MOOVA herbicidal rating in experiment [2] (0.0320 kg/ha) is reported as 0.0; in experiment [2] (0.0620 kg/ha), 6.0; in experiment [2] (0.1250 kg/ha), 6.0; in experiment [2] (0.2500 kg/ha) it was 8.0. Moreover, the SAGPY herbicidal rating in experiment [3] (0.0320 kg/ha) was 0.0; in experiment [3] (0.0620 kg/ha) it was 0.0; in experiment [3] (0.1250 kg/ha), 3.0; in experiment [3] (0.2500 kg/ha), 6.0. Also, the CYPIR herbicidal rating in experiment [4] (0.0320 kg/ha) is 0.0; in experiment [4] (0.0620 kg/ha), 7.0; in experiment [4] (0.1250 kg/ha) it was 7.0; in experiment [4] (0.2500 kg/ha) it was 9.0. Moreover, the ECHORC herbicidal rating is recorded as 4.0 in experiment [5] (0.0320 kg/ha), 4.0 in experiment [5] (0.0620 kg/ha), 6.0 in experiment [5] (0.1250 kg/ha) and 7.0 in experiment [5] (0.2500 kg/ha).

As for `Cn1c(C(F)(F)F)cc(=O)n(-c2ccc3snc(C(C#N)=Cc4ccccc4F)c3c2)c1=O` [Example 605, 1,2-Benzisothiazole-3-acetonitrile, 5-[3,6-dihydro-3-methyl-2,6-dioxo-4-(trifluoromethyl)-1(2H)-pyrimidinyl]-alpha-(o-fluorobenzylidene)-], the “herbicidal effect rating, CYPSE” value in experiment [1] (Rate 0.0320 kg/ha), in experiment [1] (Rate 0.0620 kg/ha), in experiment [1] (Rate 0.1250 kg/ha) and in experiment [1] (Rate 0.2500 kg/ha) was 0.0 each time. For the same compound, the “herbicidal effect rating, MOOVA” value in experiment [2] (Rate 0.0320 kg/ha), in experiment [2] (Rate 0.0620 kg/ha), in experiment [2] (Rate 0.1250 kg/ha) and in experiment [2] (Rate 0.2500 kg/ha) was 9.0 throughout. Also, the “herbicidal effect rating, SAGPY” value in experiment [3] (Rate 0.0320 kg/ha) came to 4.0; in experiment [3] (Rate 0.0620 kg/ha), 4.0; in experiment [3] (Rate 0.1250 kg/ha), 5.0; in experiment [3] (Rate 0.2500 kg/ha) it was 7.0. Besides, the “herbicidal effect rating, CYPIR” value stood at 1.0 in experiment [4] (Rate 0.0320 kg/ha), 3.0 in experiment [4] (Rate 0.0620 kg/ha), 7.0 in experiment [4] (Rate 0.1250 kg/ha) and 7.0 in experiment [4] (Rate 0.2500 kg/ha). Besides, the “herbicidal effect rating, ECHORC” value in experiment [5] (Rate 0.0320 kg/ha) was determined as 4.0; in experiment [5] (Rate 0.0620 kg/ha), 4.0; in experiment [5] (Rate 0.1250 kg/ha), 7.0; in experiment [5] (Rate 0.2500 kg/ha), 7.0.

On to `Cn1c(C(F)(F)F)cc(=O)n(-c2ccc3snc(COC(=O)c4ccncc4)c3c2)c1=O` [Example 463, 2,4(1H,3H)-Pyrimidinedione, 3-[3-(hydroxymethyl)-1,2-benzisothiazol-5-yl]-1-methyl-6-(trifluoromethyl)-, isonicotinate (ester)], for which the CYPSE herbicidal rating was 2.0 in experiment [1] (0.0320 kg/ha), 6.0 in experiment [1] (0.1250 kg/ha) and 7.0 in experiment [1] (0.2500 kg/ha). The MOOVA herbicidal rating in experiment [2] (0.0320 kg/ha) was found to be 7.0; in experiment [2] (0.0620 kg/ha), 9.0; in experiment [2] (0.1250 kg/ha), 9.0; in experiment [2] (0.2500 kg/ha), 9.0. Besides, the SAGPY herbicidal rating in experiment [3] (0.0320 kg/ha) is listed as 0.0; in experiment [3] (0.0620 kg/ha), 3.0; in experiment [3] (0.1250 kg/ha), 5.0; in experiment [3] (0.2500 kg/ha) it was 7.0. The CYPIR herbicidal rating is 5.0 in experiment [4] (0.0320 kg/ha), 6.0 in experiment [4] (0.0620 kg/ha), 9.0 in experiment [4] (0.1250 kg/ha) and 9.0 in experiment [4] (0.2500 kg/ha). The ECHORC herbicidal rating was found to be 2.0 in experiment [5] (0.0320 kg/ha), 6.0 in experiment [5] (0.0620 kg/ha), 9.0 in experiment [5] (0.1250 kg/ha) and 9.0 in experiment [5] (0.2500 kg/ha).

For “2,4(1H,3H)-Pyrimidinedione, 1-methyl-3-[(2-methylbutyryl)-1,2-benzisothiazol-5-yl]-6-(trifluoromethyl)- [Example 433]”, the CYPSE in experiment [1] (0.0320 kg/ha) came out at 0.0; in experiment [1] (0.0620 kg/ha), 6.0; in experiment [1] (0.1250 kg/ha), 7.5; in experiment [1] (0.2500 kg/ha) it was 7.5. Further, the MOOVA in experiment [2] (0.0320 kg/ha) stood at 8.5; in experiment [2] (0.0620 kg/ha), 9.0; in experiment [2] (0.1250 kg/ha) it was 9.0; in experiment [2] (0.2500 kg/ha), 9.0. The SAGPY in experiment [3] (0.0320 kg/ha) is recorded as 2.0; in experiment [3] (0.0620 kg/ha), 4.5; in experiment [3] (0.1250 kg/ha) it was 6.0; in experiment [3] (0.2500 kg/ha) it was 7.0. Besides, the CYPIR is recorded as 5.5 in experiment [4] (0.0320 kg/ha), 8.5 in experiment [4] (0.0620 kg/ha), 9.0 in experiment [4] (0.1250 kg/ha) and 9.0 in experiment [4] (0.2500 kg/ha). The ECHORC in experiment [5] (0.0320 kg/ha) worked out at 8.0; in experiment [5] (0.0620 kg/ha), 9.0; in experiment [5] (0.1250 kg/ha), 9.0; in experiment [5] (0.2500 kg/ha) it was 9.0.

In the case of `COc1ccc(OC)c(CC(=O)OCc2nsc3ccc(-n4c(=O)cc(C(F)(F)F)n(C)c4=O)cc23)c1` [Example 503, 2,4(1H,3H)-Pyrimidinedione, 3-[3-(hydroxymethyl)-1,2-benzisothiazol-5-yl]-1-methyl-6-(trifluoromethyl)-, (2,5-dimethoxyphenyl)acetate (ester)], the CYPSE herbicidal rating in experiment [1] (0.1250 kg/ha) is 5.0; in experiment [1] (0.2500 kg/ha) it was 6.0. Also, the MOOVA herbicidal rating turned out to be 7.0 in experiment [2] (0.0320 kg/ha), 9.0 in experiment [2] (0.0620 kg/ha), 9.0 in experiment [2] (0.1250 kg/ha) and 9.0 in experiment [2] (0.2500 kg/ha). Moreover, the SAGPY herbicidal rating in experiment [3] (0.0320 kg/ha) is given as 0.0; in experiment [3] (0.0620 kg/ha) it was 3.0; in experiment [3] (0.1250 kg/ha), 4.0; in experiment [3] (0.2500 kg/ha), 8.0. Besides, the CYPIR herbicidal rating amounted to 0.0 in experiment [4] (0.0320 kg/ha), 6.0 in experiment [4] (0.0620 kg/ha), 9.0 in experiment [4] (0.1250 kg/ha) and 7.0 in experiment [4] (0.2500 kg/ha). The ECHORC herbicidal rating in experiment [5] (0.0320 kg/ha) is 2.0; in experiment [5] (0.0620 kg/ha), 4.0; in experiment [5] (0.1250 kg/ha), 6.0; in experiment [5] (0.2500 kg/ha), 6.0.
